Common to all, as to test: cells
One experiment deals with A549. The conditions noted are these: Homo sapiens, A549, 72 h.
Another experiment has as its system HK-2. The note with it: Homo sapiens, HK-2, 72 h.
A further experiment has as its system MDA-MB-231. The note with it: Homo sapiens, MDA-MB-231, 72 h.

Each structure is given as a SMILES string.

Description for A549: Antiproliferative activity against human A549 cells assessed as reduction in cell viability after 72 hrs by MTT assay
Description for HK-2: Cytotoxicity against human HK2 cells assessed as reduction in cell viability after 72 hrs by MTT assay
Description for MDA-MB-231: Antiproliferative activity against human MDA-MB-231 cells assessed as reduction in cell viability after 72 hrs by MTT assay

What is called IC50 is the concentration that gives 50% inhibition. As to `CP(C)(=O)c1ccccc1Nc1nc(Nc2cnn(C3CCOCC3)c2)nc2[nH]ccc12`, the IC50 came out at 7.01 µM with A549, 14.4 µM with HK-2 and 5.53 µM in the experiment on MDA-MB-231.

Turning to `CP(C)(=O)c1ccccc1Nc1nc(Nc2ccc(C(=O)N3CCOCC3)cc2)nc2[nH]ccc12`, the half-maximal inhibitory concentration (IC50) is 9.8 µM with A549, 8.89 µM in the experiment with HK-2 and 14.3 µM with MDA-MB-231.

On to `CP(C)(=O)c1ccccc1Nc1nc(Nc2ccc(C(=O)NC3CCOCC3)cc2)nc2[nH]ccc12`, for which the half-maximal inhibitory concentration (IC50) in the experiment with A549 came out at 3.72 µM; in the experiment on HK-2 it was 9.75 µM; in the experiment on MDA-MB-231, 6.53 µM.

Regarding `CCNS(=O)(=O)c1ccc(Nc2nc(Nc3ccccc3P(C)(C)=O)c3cc[nH]c3n2)cc1`, the half-maximal inhibitory concentration (IC50) amounted to 1.02 µM in the experiment on A549, 4.77 µM in the experiment with HK-2 and 1.31 µM in the experiment on MDA-MB-231.

Consider `COCCn1cc(Nc2nc(Nc3ccccc3P(C)(C)=O)c3cc[nH]c3n2)cn1`, for which the IC50 with A549 was 17.4 µM; in the experiment on HK-2, more than 25 µM; in the experiment on MDA-MB-231, 8.18 µM.

`CP(C)(=O)c1ccccc1Nc1nc(Nc2ccc(C(=O)NC3CCNCC3)cc2)nc2[nH]ccc12`: the results for the IC50 in the experiment on A549, in the experiment with HK-2 and in the experiment with MDA-MB-231 were 2.93 µM, more than 25 µM and 17.8 µM, respectively.

Take `CP(C)(=O)c1ccccc1Nc1nc(Nc2cnn(C3CCNCC3)c2)nc2[nH]ccc12`: the IC50 in the experiment on A549 was 14.5 µM; with HK-2, more than 25 µM; in the experiment on MDA-MB-231 it was 14.1 µM.

For the compound `COc1cc(C(=O)NC2CCNCC2)c(F)cc1Nc1nc(Nc2ccccc2P(C)(C)=O)c2cc[nH]c2n1`, the values for the half-inhibitory concentration (IC50) in the experiment on A549, in the experiment on HK-2 and with MDA-MB-231 were 2.24 µM, more than 25 µM and 11.3 µM, respectively.

As to `CNC(=O)c1ccccc1Nc1nc(Nc2ccc(N3CCOCC3)cc2OC)ncc1Cl`, the IC50 in the experiment on A549 was 1.02 µM; with HK-2, 8.2 µM; in the experiment with MDA-MB-231, 4.24 µM.

Consider `CP(C)(=O)c1ccccc1Nc1nc(Nc2ccc(N3CCNCC3)cc2)nc2[nH]ccc12`, for which the values for the concentration for half-maximal inhibition (IC50) with A549, in the experiment on HK-2 and in the experiment with MDA-MB-231 were 0.53 µM, 8.33 µM and 4.35 µM, respectively.

Take `CP(C)(=O)c1ccccc1Nc1nc(Nc2ccc(C(=O)N3CCNCC3)cc2)nc2[nH]ccc12`: the IC50 was 9.88 µM in the experiment with A549, more than 25 µM in the experiment with HK-2 and 8.8 µM in the experiment with MDA-MB-231.

For the compound `CP(C)(=O)c1ccccc1Nc1nc(Nc2cnn(CC(F)F)c2)nc2[nH]ccc12`, the half-inhibitory concentration (IC50) in the experiment with A549 worked out at 7.53 µM; in the experiment with HK-2, 4.4 µM; in the experiment with MDA-MB-231, 3.43 µM.

In the case of `CP(C)(=O)c1ccccc1Nc1nc(Nc2ccc(C(=O)NC3CCNCC3)c(F)c2)nc2[nH]ccc12`, the IC50 stood at 1.61 µM with A549, 21.9 µM in the experiment on HK-2 and 4.17 µM with MDA-MB-231.

Consider `CP(C)(=O)c1ccccc1Nc1nc(Nc2ccc(C(=O)N[C@H]3CCCNC3)cc2)nc2[nH]ccc12`, for which the IC50 in the experiment with A549 is 2.48 µM; in the experiment with HK-2 it was more than 25 µM; in the experiment with MDA-MB-231 it was 12.4 µM.

Regarding `CNC(=O)c1ccc(Nc2nc(Nc3ccccc3P(C)(C)=O)c3cc[nH]c3n2)cc1`, the 50% inhibitory concentration (IC50) is 3.45 µM in the experiment on A549, 9.16 µM in the experiment with HK-2 and 4.17 µM in the experiment with MDA-MB-231.

Values taken from ChEMBL document CHEMBL4311976, “Design, synthesis and biological evaluation of novel 7H-pyrrolo[2,3-d]pyrimidine derivatives as potential FAK inhibitors and anticancer agents” (Eur J Med Chem, 2019).
